In article PMC4931477, “Electronic Biosensing with Functionalized rGO FETs” (Biosensors, 2016):

Experiments:
[1] = biological target: T1, OBP14 (odorant binding protein 14) (Apis mellifera, UniProt A0A8U0WQC3); experiment: rGO-FET biosensor, shift of ISD-vs-VG curves with ligand concentration; settings: protein covalently immobilized via PBSE on rGO gate; liquid gate, VSD = 50 mV
T1 construct: recombinant, bacterial expression, purified by chromatography and Superose-12 gel filtration; covalently immobilized via PBSE linker on rGO FET gate
T1 sequence (A0A8U0WQC3 17-135): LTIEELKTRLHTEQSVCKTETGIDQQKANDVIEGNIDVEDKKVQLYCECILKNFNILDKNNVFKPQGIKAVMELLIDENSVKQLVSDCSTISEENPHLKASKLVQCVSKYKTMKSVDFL

[2] = biological target: T1, OBP14 (odorant binding protein 14); experiment: rGO-FET biosensor, real-time kinetics (koff/kon), source-drain current
[3] = biological target: T1, OBP14 (odorant binding protein 14); experiment: rGO-FET biosensor, equilibrium titration, Langmuir isotherm; settings: protein covalently immobilized via PBSE on rGO gate; aqueous solution; titration determination

Compound	rGO-FET biosensor, shift of ISD-vs-VG curves with ligand concentration [1]	Kd [2] [µM]	KA [3]
C=CCc1ccc(O)c(OC)c1 [Eugenol]	OBP14 functionalized rGO FET-biosensor device at different Eugenol concentrations	–	–
COc1cc(CC(=O)O)ccc1O [homovanillic acid]	–	7.1	2.5 × 10^5
